For the experiment, the target named is T1, Estrogen receptor (Homo sapiens, UniProt P03372).
T1 sequence (P03372 whole entry): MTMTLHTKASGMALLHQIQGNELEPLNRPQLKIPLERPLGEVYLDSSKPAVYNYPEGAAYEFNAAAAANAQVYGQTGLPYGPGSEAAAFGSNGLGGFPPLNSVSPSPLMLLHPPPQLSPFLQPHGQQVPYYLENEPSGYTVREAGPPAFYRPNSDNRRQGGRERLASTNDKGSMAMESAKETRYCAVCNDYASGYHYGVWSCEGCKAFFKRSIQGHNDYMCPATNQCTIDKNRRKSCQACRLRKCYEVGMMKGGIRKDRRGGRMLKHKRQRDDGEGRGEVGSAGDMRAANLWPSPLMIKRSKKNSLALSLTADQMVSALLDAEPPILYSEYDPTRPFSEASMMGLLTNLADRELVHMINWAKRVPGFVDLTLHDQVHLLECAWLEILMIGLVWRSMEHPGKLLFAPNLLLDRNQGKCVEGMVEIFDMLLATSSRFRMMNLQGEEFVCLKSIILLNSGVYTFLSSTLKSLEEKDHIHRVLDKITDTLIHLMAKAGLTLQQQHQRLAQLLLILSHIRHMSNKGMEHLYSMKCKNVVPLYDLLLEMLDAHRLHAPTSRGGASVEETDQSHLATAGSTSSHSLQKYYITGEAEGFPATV
As to the kind of experiment: Antiestrogenic activity at estrogen receptor alpha expressed in yeast cells assessed as inhibition of 17-beta-estradiol-induced beta-galactosidase activity by two hybrid assay. The class given is cell-based.
What is called IC50 is the concentration that gives 50% inhibition. Turning to `C=C(C)C(O)Cc1c(O)c(CC=C(C)C)c2occ(-c3ccc(O)c(O)c3)c(=O)c2c1O` (racemic) [MILLEWANIN G], the IC50 was 29 µM.
Take `CC(C)=CCc1c2c(c3occ(-c4ccc(O)c(O)c4)c(=O)c3c1O)CC(C(C)(C)O)O2` (racemic) [(+/-)-FUROWANIN B]: the IC50 is 13 µM.
`C=C(C)C(O)Cc1c(O)c(CC=C(C)C)c(O)c2c(=O)c(-c3ccc(O)c(O)c3)coc12` (racemic): the concentration for half-maximal inhibition (IC50) was 18 µM.

For the origin of these results see ChEMBL document CHEMBL1157234, “Isoflavonoids with antiestrogenic activity from Millettia pachycarpa” (J Nat Prod, 2006).
